MIC data for 63 molecules are collected here from ChEMBL document CHEMBL1125122, “Antibacterials. Synthesis and structure-activity studies of 3-aryl-2-oxooxazolidines. 2. The "A" group” (1990).

The structures appear in SMILES notation. ≈ marks a conversion by molar mass, not a printed value. Bounds are passed on as bounds.

For one assay, the system named is Enterococcus faecalis. As to the kind of experiment: In vitro for antibacterial activity against Enterococcus faecalis strain STCO-19. In kind it is functional.
The next assay has as its system Staphylococcus aureus. As to the kind of experiment: In vitro for antibacterial activity against Staphylococcus aureus strain SFCO-1a. The assay is classed as functional.

As a reminder, the MIC is the lowest concentration that inhibits growth of the organism. Read a high MIC as a less susceptible organism. For `CC(=O)NC[C@H]1CN(c2ccc([S@+](C)[O-])cc2)C(=O)O1`, the MIC against Enterococcus faecalis amounted to 16 µg/mL (≈ 54 µM); in the assay on Staphylococcus aureus, 8 µg/mL (≈ 27 µM).
Regarding `CCCc1ccc(N2C[C@H](CNC(C)=O)OC2=O)cc1`, the results for the MIC with Enterococcus faecalis and against Staphylococcus aureus were 4 µg/mL (≈ 14.5 µM) and 2 µg/mL (≈ 7.24 µM), respectively.
In the same order, the values of `CC(=O)NC[C@@H]1CN(c2ccc(S(C)=O)cc2)C(=O)O1` (stereo partly specified) are 4 µg/mL (≈ 13.5 µM) and 4 µg/mL (≈ 13.5 µM).
In the same order, the values of `CC(=O)NC[C@H]1CN(c2ccc(C)cc2)C(=O)O1` are 32 µg/mL (≈ 129 µM) and 32 µg/mL (≈ 129 µM).
In the same order, the values of `CC(=O)NC[C@H]1CN(c2ccc(C=O)cc2)C(=O)O1` are 8 µg/mL (≈ 30.5 µM) and 8 µg/mL (≈ 30.5 µM).
As for `CC(=O)NC[C@H]1CN(c2ccc(C(=O)CF)cc2)C(=O)O1`, the MIC in the assay on Enterococcus faecalis and in the assay with Staphylococcus aureus was 2 µg/mL (≈ 6.8 µM) throughout.
`CC(=O)NC[C@H]1CN(c2ccc(C(C)(C)O)cc2)C(=O)O1`: the values for the MIC in the assay on Enterococcus faecalis and in the assay with Staphylococcus aureus were 4 µg/mL (≈ 13.7 µM) and 2 µg/mL (≈ 6.84 µM), respectively.
For `CCCC(=O)c1ccc(N2C[C@H](CNC(C)=O)OC2=O)cc1`, in that order: 0.25 µg/mL (≈ 0.821 µM) and 0.25 µg/mL (≈ 0.821 µM).
In the case of `CCC(=O)c1ccc(N2C[C@H](CNC(C)=O)OC2=O)cc1`, the MIC with Enterococcus faecalis was 0.5 µg/mL (≈ 1.72 µM); in the assay on Staphylococcus aureus, 1 µg/mL (≈ 3.44 µM).
For `CC(=O)NC[C@H]1CN(c2ccccc2)C(=O)O1`, in that order: 128 µg/mL (≈ 546 µM) and 128 µg/mL (≈ 546 µM).
In the same order, the values of `CC(=O)NC[C@H]1CN(c2ccc([S+]([O-])CF)cc2)C(=O)O1` (stereo partly specified) are 8 µg/mL (≈ 25.5 µM) and 8 µg/mL (≈ 25.5 µM).
In the same order, the values of `CC(=O)NC[C@H]1CN(c2ccc(/C=N\O)cc2)C(=O)O1` are 16 µg/mL (≈ 57.7 µM) and 16 µg/mL (≈ 57.7 µM).
Consider `C#Cc1ccc(N2C[C@H](CNC(C)=O)OC2=O)cc1`, for which the MIC with Enterococcus faecalis and against Staphylococcus aureus was 16 µg/mL (≈ 61.9 µM) in each case.
As to `CC(=O)NC[C@H]1CN(c2ccc(N)cc2)C(=O)O1`, the MIC against Enterococcus faecalis and against Staphylococcus aureus was 128 µg/mL (≈ 513 µM) throughout.
For the molecule `CC(=O)NC[C@H]1CN(c2ccc([S+](C)[O-])cc2)C(=O)O1` (stereo partly specified), the MIC in the assay on Enterococcus faecalis and with Staphylococcus aureus was 4 µg/mL (≈ 13.5 µM) in each case.
For the molecule `CCN(CC)c1ccc(N2C[C@H](CNC(C)=O)OC2=O)cc1`, the figures for the MIC against Enterococcus faecalis and in the assay on Staphylococcus aureus were 16 µg/mL (≈ 52.4 µM) and 8 µg/mL (≈ 26.2 µM), respectively.
In the same order, the values of `CC(=O)NC[C@H]1CN(c2ccc(C(=O)CC#N)cc2)C(=O)O1` are 64 µg/mL (≈ 212 µM) and 8 µg/mL (≈ 26.6 µM).
As for `CCC/C(=N/O)c1ccc(N2C[C@H](CNC(C)=O)OC2=O)cc1`, the MIC in the assay with Enterococcus faecalis and in the assay with Staphylococcus aureus was 4 µg/mL (≈ 12.5 µM) in each case.
Turning to `CC(=O)NC[C@H]1CN(c2ccc(C(F)(F)C(F)(F)F)cc2)C(=O)O1`, the MIC against Enterococcus faecalis and against Staphylococcus aureus was 2 µg/mL (≈ 5.68 µM) throughout.
On to `CC(=O)NC[C@H]1CN(c2ccc(I)cc2)C(=O)O1`, for which the MIC with Enterococcus faecalis and against Staphylococcus aureus was 8 µg/mL (≈ 22.2 µM) in each case.
Turning to `CC(=O)NC[C@H]1CN(c2ccc(Br)cc2)C(=O)O1`, the MIC against Enterococcus faecalis was found to be 8 µg/mL (≈ 25.5 µM); with Staphylococcus aureus, 16 µg/mL (≈ 51.1 µM).
For `CC(=O)NC[C@H]1CN(c2ccc(C(C)O)cc2)C(=O)O1` (stereo partly specified), in that order: 4 µg/mL (≈ 14.4 µM) and 4 µg/mL (≈ 14.4 µM).
As to `CC(=O)NC[C@H]1CN(c2ccc(C(O)C(C)C)cc2)C(=O)O1` (stereo partly specified), the MIC against Enterococcus faecalis came out at 8 µg/mL (≈ 26.1 µM); against Staphylococcus aureus, 4 µg/mL (≈ 13.1 µM).
In the same order, the values of `CC(=O)NC[C@H]1CN(c2ccc(C(=O)COC(C)=O)cc2)C(=O)O1` are 2 µg/mL (≈ 5.98 µM) and 0.5 µg/mL (≈ 1.5 µM).
Regarding `COC(=O)c1ccc(N2C[C@H](CNC(C)=O)OC2=O)cc1`, the MIC with Enterococcus faecalis and in the assay on Staphylococcus aureus was 2 µg/mL (≈ 6.84 µM) each time.
Regarding `CC(=O)NC[C@H]1CN(c2ccc(S(=O)(=O)CF)cc2)C(=O)O1`, the MIC in the assay with Enterococcus faecalis and in the assay with Staphylococcus aureus was 1 µg/mL (≈ 3.03 µM) throughout.
`CC(=O)NC[C@H]1CN(c2ccc(C(=O)C(C)C)cc2)C(=O)O1`: the MIC against Enterococcus faecalis and in the assay with Staphylococcus aureus was 1 µg/mL (≈ 3.29 µM) in each case.
With `CC(=O)NC[C@H]1CN(c2ccc(C(=O)CBr)cc2)C(=O)O1`, the MIC in the assay with Enterococcus faecalis came to 8 µg/mL (≈ 22.5 µM); in the assay on Staphylococcus aureus, 4 µg/mL (≈ 11.3 µM).
In the same order, the values of `CC(=O)NC[C@H]1CN(c2ccc(SC(F)(F)F)cc2)C(=O)O1` are 4 µg/mL (≈ 12 µM) and 4 µg/mL (≈ 12 µM).
In the same order, the values of `CC(=O)NC[C@H]1CN(c2ccc([N+](=O)[O-])cc2)C(=O)O1` are 2 µg/mL (≈ 7.16 µM) and 2 µg/mL (≈ 7.16 µM).
For `CCSc1ccc(N2C[C@H](CNC(C)=O)OC2=O)cc1`, in that order: 2 µg/mL (≈ 6.79 µM) and 1 µg/mL (≈ 3.4 µM).
Take `CC(=O)NC[C@H]1CN(c2ccc(N(C)C)cc2)C(=O)O1`: the MIC in the assay on Enterococcus faecalis and in the assay with Staphylococcus aureus was 16 µg/mL (≈ 57.7 µM) each time.
On to `CC(=O)NC[C@H]1CN(c2ccc(S(=O)(=O)C(F)(F)F)cc2)C(=O)O1`, for which the MIC with Enterococcus faecalis and in the assay with Staphylococcus aureus was 2 µg/mL (≈ 5.46 µM) each time.
For `CCCC(O)c1ccc(N2C[C@H](CNC(C)=O)OC2=O)cc1` (stereo partly specified), the MIC stood at 32 µg/mL (≈ 104 µM) with Enterococcus faecalis and 16 µg/mL (≈ 52.2 µM) with Staphylococcus aureus.
For `CC(=O)NC[C@H]1CN(c2ccc(/C(C)=N\O)cc2)C(=O)O1`, in that order: 2 µg/mL (≈ 6.87 µM) and 4 µg/mL (≈ 13.7 µM).
In the case of `CCCSc1ccc(N2C[C@H](CNC(C)=O)OC2=O)cc1`, the MIC against Enterococcus faecalis and in the assay on Staphylococcus aureus was 8 µg/mL (≈ 25.9 µM) throughout.
Take `CC(=O)NC[C@H]1CN(c2ccc(C(=O)CCl)cc2)C(=O)O1`: the MIC came out at 2 µg/mL (≈ 6.44 µM) against Enterococcus faecalis and 0.5 µg/mL (≈ 1.61 µM) against Staphylococcus aureus.
For `CCS(=O)(=O)c1ccc(N2C[C@H](CNC(C)=O)OC2=O)cc1`, in that order: 8 µg/mL (≈ 24.5 µM) and 8 µg/mL (≈ 24.5 µM).
In the same order, the values of `CC(=O)NC[C@H]1CN(c2ccc(C(C)(C)C)cc2)C(=O)O1` are 2 µg/mL (≈ 6.89 µM) and 1 µg/mL (≈ 3.44 µM).
For `CCc1ccc(N2C[C@H](CNC(C)=O)OC2=O)cc1`, in that order: 8 µg/mL (≈ 30.5 µM) and 4 µg/mL (≈ 15.2 µM).
On to `CCCS(=O)(=O)c1ccc(N2C[C@H](CNC(C)=O)OC2=O)cc1`, for which the MIC against Enterococcus faecalis and against Staphylococcus aureus was 32 µg/mL (≈ 94 µM) throughout.
In the case of `CC(=O)NC[C@H]1CN(c2ccc([S+]([O-])C(F)(F)F)cc2)C(=O)O1` (stereo partly specified), the MIC against Enterococcus faecalis and with Staphylococcus aureus was 2 µg/mL (≈ 5.71 µM) each time.
As for `C=Cc1ccc(N2C[C@H](CNC(C)=O)OC2=O)cc1`, the MIC in the assay on Enterococcus faecalis was found to be 8 µg/mL (≈ 30.7 µM); with Staphylococcus aureus it was 4 µg/mL (≈ 15.4 µM).
In the same order, the values of `CCCCOc1ccc(N2C[C@H](CNC(C)=O)OC2=O)cc1` are 16 µg/mL (≈ 52.2 µM) and 8 µg/mL (≈ 26.1 µM).
For the molecule `CC(=O)NC[C@H]1CN(c2ccc(S(C)(=O)=O)cc2)C(=O)O1`, the MIC in the assay with Enterococcus faecalis and with Staphylococcus aureus was 4 µg/mL (≈ 12.8 µM) throughout.
With `CC(=O)NCC(=O)c1ccc(N2C[C@H](CNC(C)=O)OC2=O)cc1`, the MIC against Enterococcus faecalis came out at 16 µg/mL (≈ 48 µM); against Staphylococcus aureus it was 8 µg/mL (≈ 24 µM).
For `CC(=O)Cc1ccc(N2C[C@H](CNC(C)=O)OC2=O)cc1`, in that order: 8 µg/mL (≈ 27.6 µM) and 4 µg/mL (≈ 13.8 µM).
For `CC(=O)NC[C@H]1CN(c2ccc(Sc3ccccc3)cc2)C(=O)O1`, in that order: 128 µg/mL (≈ 374 µM) and above 128 µg/mL.
For `CCC[S+]([O-])c1ccc(N2C[C@H](CNC(C)=O)OC2=O)cc1` (stereo partly specified), in that order: 64 µg/mL (≈ 197 µM) and 32 µg/mL (≈ 98.6 µM).
On to `CSc1ccc(N2C[C@H](CNC(C)=O)OC2=O)cc1`, for which the MIC in the assay with Enterococcus faecalis and in the assay on Staphylococcus aureus was 4 µg/mL (≈ 14.3 µM) each time.
As for `CCC(O)c1ccc(N2C[C@H](CNC(C)=O)OC2=O)cc1` (stereo partly specified), the MIC with Enterococcus faecalis came to 64 µg/mL (≈ 219 µM); in the assay on Staphylococcus aureus, 32 µg/mL (≈ 109 µM).
For `CC(=O)NC[C@H]1CN(c2ccc(C(F)(F)F)cc2)C(=O)O1`, in that order: 8 µg/mL (≈ 26.5 µM) and 8 µg/mL (≈ 26.5 µM).
For `CC(=O)NCC1CN(c2ccc(Cl)cc2)C(=O)O1` (racemic), in that order: 64 µg/mL (≈ 238 µM) and 32 µg/mL (≈ 119 µM).
In the same order, the values of `CC(=O)NCC1CN(c2ccc(CO)cc2)C(=O)O1` (racemic) are 16 µg/mL (≈ 60.5 µM) and 32 µg/mL (≈ 121 µM).
Turning to `CC(=O)NCC1CN(c2ccc(Oc3ccccc3)cc2)C(=O)O1` (racemic), the MIC in the assay on Enterococcus faecalis and with Staphylococcus aureus was 64 µg/mL (≈ 196 µM) throughout.
Regarding `CCCCc1ccc(N2CC(CNC(C)=O)OC2=O)cc1` (racemic), the MIC against Enterococcus faecalis and in the assay on Staphylococcus aureus was 4 µg/mL (≈ 13.8 µM) each time.
Regarding `CC(=O)NCC1CN(c2ccc(C(C)C)cc2)C(=O)O1` (racemic), the MIC in the assay with Enterococcus faecalis and in the assay with Staphylococcus aureus was 4 µg/mL (≈ 14.5 µM) throughout.
Turning to `CC(=O)NCC1CN(c2ccc(F)cc2)C(=O)O1` (racemic), the MIC against Enterococcus faecalis and in the assay with Staphylococcus aureus was above 64 µg/mL throughout.
For `CCOC(=O)c1ccc(N2CC(CNC(C)=O)OC2=O)cc1` (racemic), the MIC against Enterococcus faecalis and against Staphylococcus aureus was 4 µg/mL (≈ 13.1 µM) throughout.
As for `CC(=O)NCC1CN(c2ccc(C#N)cc2)C(=O)O1` (racemic), the MIC with Enterococcus faecalis and with Staphylococcus aureus was 16 µg/mL (≈ 61.7 µM) each time.
Regarding `COc1ccc(N2CC(CNC(C)=O)OC2=O)cc1` (racemic), the MIC against Enterococcus faecalis and in the assay with Staphylococcus aureus was 32 µg/mL (≈ 121 µM) in each case.
For `CC[S+]([O-])c1ccc(N2CC(CNC(C)=O)OC2=O)cc1` (single isomer, unassigned), the MIC against Enterococcus faecalis and against Staphylococcus aureus was 16 µg/mL (≈ 51.6 µM) in each case.
With `CC(=O)NC[C@H]1CN(c2ccc(C(C)=O)cc2)C(=O)O1` [DUP-721], the values for the MIC with Enterococcus faecalis and against Staphylococcus aureus were 1 µg/mL (≈ 3.62 µM) and 0.5 µg/mL (≈ 1.81 µM), respectively.
